Values belong to the compound of their own block, whether it stands above or below them.
Assays:
[1] = Non-sink dissolution of melt extruded formulations in simulated gastric fluid; format: physicochemical
Method: (§1) Solid dispersion formulations of Compound A in Eudragit® E PO (Formulation 2) and Kollidon® VA 64 (Formulation 3) were examined for dissolution behavior under non-sink conditions to assess oral bioavailability enhancement. Studies were conducted in three different media preparations, including: simulated gastric fluid, fed state simulated intestinal fluid and fasted state simulated intestinal fluid, which are presented in Table 2, Table 3 and Table 4 and FIG. 1, FIG. 2 and FIG. 3.

[2] = Non-sink dissolution of melt extruded compositions in simulated fed state intestinal fluid; format: physicochemical
Method: as §1

[3] = Non-sink dissolution of melt extruded compositions in simulated fasted state intestinal fluid; format: physicochemical
Method: as §1

[4] = In vitro dissolution test in NaTC/POPC in PBS (pH 6.5); format: physicochemical; settings: theoretical Cmax 200 μg/mL
Method: (§2) Samples were weighed, dissolved in the buffer system, centrifuged, and the supernatant analyzed by HPLC at 10, 20, 40, and 90 minutes.
(§3) Tables 7a and 7b and FIG. 6 compares in vitro dissolution performance of Compound A:CAP SDD with that of crystalline of Compound A, HPMCAS-MG, and HPMCAS-HG.

[5] = In vitro dissolution of HPMCAS dispersions (Table 7b, simulated gastric fluid); format: physicochemical; settings: dose 200 μg/mL, initial ninety minutes
Method: as §2, §3

[6] = In vivo systemic exposure in male beagle dogs, oral dosing; settings: dog; for AUC(0-t): read-out: AUC0-24 hr
Method: In vivo testing was performed in male dogs to compare the systemic exposure of the 25% Compound A:CAP SDD (n=2) to that of the crystalline Compound A (n=2).

[7] = Phase 1 multiple ascending dose study, pharmacokinetics; format: in vivo; settings: human, blood, po, repeat (5) daily doses, mean (±SD); for AUC(0-t): read-out: AUC0-24 h
Source text: (§4) This is a single center, phase 1, double-blind, placebo-controlled, multiple ascending dose study of Compound A given orally as a reformulated tablet (spray dried dispersion, or SDD) to otherwise healthy subjects with “pre-diabetes” (impaired fasting glucose, impaired glucose tolerance, or HbA1C≧5.8), or diet-controlled type 2 diabetes mellitus. The study was designed to evaluate the safety, tolerability, pharmacokinetics (PK), and proof-of-concept pharmacodynamics of Compound A. Each dosing cohort consisted of a screening period to assess eligibility, a dosing and observational period, and a follow-up period.
The screening visit was used to assess preliminary eligibility in potential subjects who provided informed consent. Final eligibility for study enrollment was determined after check-in to the clinic on Day −3, before randomization and dosing (on Day 1). Eleven eligible subjects who successfully completed screening were enrolled into the lowest dose cohort that was yet to be filled, and randomly assigned in a double-blind fashion to receive Compound A (n=8) or matched placebo (n=3). Up to 4 additional subjects were admitted to the clinic and available as back-ups in the event that 1 of the original 11 subjects was not dosed for any reason.
Each of these study cohorts was enrolled and completed independently, and in sequential fashion. After completion of the inpatient observational period at Day 8, blinded clinical safety and laboratory parameters (including PK) were assessed in a teleconference between the Principal Investigator, or Sub-Investigator, and the Metabolex Medical Monitor, after which subject dosing assignments could have been unblinded, if necessary, for determination of dose-limiting toxicities (DLTs). If two dose-limiting toxicities (DLTs) occurred within the same treatment cohort in subjects receiving active drug, no further dose escalation would have been allowed, and the maximum tolerated dose (MTD) would have been defined by the dose in the previous cohort. Additionally, dosing may have been halted at the discretion of the sponsor depending on observed Compound A concentrations and PK parameters from the preceding cohort in context of the safety and pharmacodynamic profile of the preceding cohorts.
On Day −2, following a 10 hour overnight fast, up to 15 eligible subjects underwent a baseline MMTT administered between 9:30 and 10:15 am, for the assessment of glucose and insulin response and of total GLP-1 and glucagon. On Day −1, following a 10 hour overnight fast, up to 15 eligible subjects also underwent a baseline OGTT (75 g) administered at the identical time of day as the MMTT, for assessment of the same markers. After the baseline OGTT assessments, 11 subjects were enrolled and randomized into the current dosing cohort. Up to 4 additional subjects remained overnight to be available as back-ups in the event that 1 of the original 11 subjects was, for any reason, not dosed. If more than 11 eligible subjects meet the cohort requirements, the excess subjects may have been included in the next cohort check-in, if within the 35 day screening window and they continued to meet eligibility. On Days 1 through 5, following a 10 hour overnight fast, subjects received daily doses of Compound A or placebo exactly 2 hours earlier than the start of the baseline MMTT, under fasted conditions. The inpatient period in clinic began on Day −2 and concluded on Day 8, following the final inpatient study procedure. The following assessments were made in temporal relationship to the administration of the study drug, administered at Day 1, Time 0, unless otherwise stated: • Pharmacokinetic Blood and Urine Sampling: • Subjects randomized to Compound A or placebo underwent single dose (Day 1) and repeat dose (Day 4) PK. Compound A was measured pre-dose (t −30 and 0 min) on Day 1 and at 20 and 40 minutes, and 1, 2, 3, 4, 6, 8, 12, and 24 hours post-dose. […]

[8] = tested on: subjects with pre-diabetes; assay: Phase 1c study C, pharmacodynamics (MMTT/OGTT glucose excursion, fasting glucose); format: in vivo, human
Source text: as §4
On Day −2, following a 10 hour overnight fast, up to 15 eligible subjects underwent a baseline MMTT administered between 9:30 and 10:15 am, for the assessment of glucose and insulin response and of total GLP-1 and glucagon. On Day −1, following a 10 hour overnight fast, up to 15 eligible subjects also underwent a baseline OGTT (75 g) administered at the identical time of day as the MMTT, for assessment of the same markers. […] Compound A was measured pre-dose (t −30 and 0 min) on Day 1 and at 20 and 40 minutes, and 1, 2, 3, 4, 6, 8, 12, and 24 hours post-dose. Compound A was measured at identical timepoints associated with the Day 4 dose, but included additional measurements at 48 and 72 hours post-dose (Day 7). […]

[9] = SDD tablet 25 mg orally once daily
[10] = SDD tablet 100 mg orally once daily
[11] = SDD tablets 300 mg orally once daily
[12] = SDD tablets 600 mg orally once daily

AUC0-2 hr [1]: 321 µg·h/mL
AUC0-4 hr [1]: 727 µg·h/mL
AUC0-24 hr [1]: 4494 µg·h/mL
Cmax [1]: 247000 ng/mL
Tmax [1]: 2 h
AUC0-2 hr [2]: 100.045 µg·h/mL
AUC0-4 hr [2]: 211.597 µg·h/mL
AUC0-24 hr [2]: 1148.003 µg·h/mL
Cmax [2]: 60182 ng/mL
Tmax [2]: 2 h
AUC0-2 hr [3]: 51.205 µg·h/mL
AUC0-4 hr [3]: 103.281 µg·h/mL
AUC0-24 hr [3]: 434.380 µg·h/mL
Cmax [3]: 29891 ng/mL
Tmax [3]: 0.50 h
AUC0-90 ([4]; NaTC/POPC in PBS pH 6.5, through 90 minutes): 950 µg·min/mL
Cmax (μg/mL Compound A) ([4]; NaTC/POPC in PBS pH 6.5, up to 90 min): 12 µg/mL
AUC90 [5]: 1000 µg·min/mL
Cmax90 [5]: 8000 ng/mL
Cmax ([6]; 10 mg/kg orally): 560 ng/mL
AUC(0-t) ([6]; 10 mg/kg orally): 3.9 µg·h/mL
Cmax ([6]; 200 mg/kg orally): 2000 ng/mL
AUC(0-t) ([6]; 200 mg/kg orally): 17 µg·h/mL
Structure (SMILES): CCc1cnc(N2CCC(c3nc(COc4ccc(-n5cnnn5)cc4)cs3)CC2)nc1 [Compound A Crystalline, 5-ethyl-2-{4-[4-(4-tetrazol-1-yl-phenoxymethyl)-thiazol-2-yl]-piperidin-1-yl}-pyrimidine]

AUC(0-inf) [7, 9]: 6.5 µg·h/mL
Tmax [7, 9]: 5.4 h
half-life [7, 9]: 14 h
AUC(0-t) [7, 9]: 4.15 µg·h/mL
Cmax ([7]; SDD tablet 25 mg orally once daily, subjects with pre-diabetes): 346 ng/mL
AUC(0-inf) [7, 10]: 24.6 µg·h/mL
Cmax [7, 10]: 1150 ng/mL
Tmax [7, 10]: 2.8 h
half-life [7, 10]: 18.3 h
AUC(0-t) [7, 10]: 13.3 µg·h/mL
AUC(0-inf) [7, 11]: 45 µg·h/mL
Cmax [7, 11]: 2330 ng/mL
Tmax [7, 11]: 2.2 h
half-life [7, 11]: 15.3 h
AUC(0-t) [7, 11]: 30 µg·h/mL
Cmax [7, 12]: 3560 ng/mL
Tmax [7, 12]: 3.3 h
AUC(0-t) [7, 12]: 57.9 µg·h/mL
Structure (SMILES): CCc1cnc(N2CCC(c3nc(COc4ccc(-n5cnnn5)cc4)cs3)CC2)nc1 [Compound A, 5-ethyl-2-{4-[4-(4-tetrazol-1-yl-phenoxymethyl)-thiazol-2-yl]-piperidin-1-yl}-pyrimidine]
fasting plasma glucose (FPG) and glucose excursion following MMTT and OGTT ([8]; studies conducted to date): consistently lowered
reduction in glucose, net of placebo ([8]; subsets of subjects with the greatest degree of glucose intolerance at baseline, pooled, any dose, Phase 1c (study C)): up to 77%

From patent publication US9241924B2, “Compositions of 5-ethyl-2-{4-[4-(4-tetrazol-1-yl-phenoxymethyl)-thiazol-2-yl]-piperidin-1-yl}-pyrimidine” (CYMABAY THERAPEUTICS, INC., priority 2010, dated 2016)
